How the values were obtained:
MAP4K1 = MAP4K1 (Homo sapiens, UniProt Q92918); assay: biochemical
pSer376-SLP-76 = assay: Phosphorylation assay in human cell line (Jurkat E6.1 overexpressing FLAG-tagged SLP-76, a-CD3 stimulated); assay type: cell-based; details: 30 min at 37° C., Jurkat E6.1 cells; for % amount of pSer376-SLP-76 @ 10 μM: 10 μM compound; for % amount of pSer376-SLP-76 @ 20 μM: 20 μM compound
Method: Phosphorylation assays were carried out in Jurkat E6.1 cells from American Type Culture Collection (ATCC) stably overexpressing human FLAG-tagged SLP-76 (proprietary). […] Applied compounds were tested at either fixed concentration of 10 μmol/L and 20 μmol/L or in a 8 point dose response titration of increase compound concentration with 10 nmol/L. 50 nmol/L. 100 nmol/L. 500 nmol/L. 1 μmol/L. 5 μmol/L. 10 μmol/L and 20 μmol/L in triplicates. The cells were washed once in phosphate-buffered saline (pH 7.4). Cells were lysed using a lysis buffer containing 50 mmol/L Tris-Cl (pH 7.5). 150 mM NaCl. 2 mM EDTA. 1% Triton-X 100. 0.5% Na-DOC. 0.1% SDS. […] Probe antibodies used were a rabbit monoclonal antibody supernatant raised against human phospho-Ser376-SLP-76 peptide (proprietary) and for mormalization an a-alpha-Tubulin. mouse monoclonal antibody (Sigma #T9026). […] Cells with a-CD3 treatment only were used as negative control (min control. which represent the minimally possible inhibition of pSer376-SLP-76 by a test compound)
AUC values of each respective test sample were normalized using the AUC of housekeeping gene alpha-Tubulin and AUC of pSer376-SLP-76 of the min control. The percentage of the amount of pSer-SLP-76 in the treatment samples was calculated using the max control and min control values of the respective Peggy Sue™ run.

MAP4K1, sequence (Q92918 whole entry): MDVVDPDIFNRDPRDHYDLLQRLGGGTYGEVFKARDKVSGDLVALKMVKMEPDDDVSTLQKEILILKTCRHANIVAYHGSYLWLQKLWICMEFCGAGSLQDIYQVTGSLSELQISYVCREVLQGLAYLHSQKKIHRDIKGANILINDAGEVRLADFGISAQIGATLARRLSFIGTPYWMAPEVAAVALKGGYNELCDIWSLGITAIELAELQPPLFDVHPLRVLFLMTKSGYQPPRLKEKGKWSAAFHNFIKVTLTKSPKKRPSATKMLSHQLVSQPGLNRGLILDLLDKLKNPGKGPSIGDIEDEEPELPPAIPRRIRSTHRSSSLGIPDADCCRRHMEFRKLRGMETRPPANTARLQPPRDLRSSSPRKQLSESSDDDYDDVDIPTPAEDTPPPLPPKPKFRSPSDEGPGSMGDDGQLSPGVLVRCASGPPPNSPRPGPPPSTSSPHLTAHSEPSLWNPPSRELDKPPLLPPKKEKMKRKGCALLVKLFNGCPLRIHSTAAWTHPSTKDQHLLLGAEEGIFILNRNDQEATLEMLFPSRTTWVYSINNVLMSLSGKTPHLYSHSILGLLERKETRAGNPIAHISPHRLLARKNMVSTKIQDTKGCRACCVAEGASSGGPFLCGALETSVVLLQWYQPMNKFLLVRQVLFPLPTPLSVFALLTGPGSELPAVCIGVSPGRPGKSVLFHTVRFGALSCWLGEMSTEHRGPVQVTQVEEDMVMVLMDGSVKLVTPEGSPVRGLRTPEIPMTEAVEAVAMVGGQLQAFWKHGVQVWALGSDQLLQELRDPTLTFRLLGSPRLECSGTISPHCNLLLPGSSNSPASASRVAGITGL

| Structure (SMILES) | IC50 (MAP4K1) [nM] | % amount of pSer376-SLP-76 @ 10 μM (pSer376-SLP-76) [%] | % amount of pSer376-SLP-76 @ 20 μM (pSer376-SLP-76) [%] |
| --- | --- | --- | --- |
| Cc1cc(NC(=O)NCCCN2CCOCC2)ccc1Oc1ccnc2[nH]cc(C(F)(F)F)c12 [Example 4, 1-(3-methyl-4-{[3-(trifluoromethyl)-1H-pyrrolo[2,3-b]pyridin-4-yl]oxy}phenyl)-3-[3-(morpholin-4-yl)propyl]urea] | 74 | 45.6 | 18.1 |
| N#Cc1cc(NC(=O)NCCCN2CCOCC2)ccc1Oc1ccnc2[nH]cc(C(F)(F)F)c12 [Example 7, 1-(3-cyano-4-{[3-(trifluoromethyl)-1H-pyrrolo[2,3-b]pyridin-4-yl]oxy}phenyl)-3-[3-(morpholin-4-yl)propyl]urea] | 138 |  |  |
| N#Cc1cc(NC(=O)NCCN2CCOCC2)ccc1Oc1ccnc2[nH]cc(C(F)(F)F)c12 [Example 6, 1-(3-cyano-4-{[3-(trifluoromethyl)-1H-pyrrolo[2,3-b]pyridin-4-yl]oxy}phenyl)-3-[2-(morpholin-4-yl)ethyl]urea] | 212 |  |  |
| O=C(NCCN1CCOCC1)Nc1ccc(Oc2ccnc3[nH]cc(C(F)(F)F)c23)cc1 [Example 1, 1-[2-(morpholin-4-yl)ethyl]-3-(4-{[3-(trifluoromethyl)-1H-pyrrolo[2,3-b]pyridin-4-yl]oxy}phenyl)urea] |  | 40.8 | 16.0 |
| Cc1cc(NC(=O)NCCN2CCOCC2)ccc1Oc1ccnc2[nH]cc(C(F)(F)F)c12 [Example 5, 1-(3-methyl-4-{[3-(trifluoromethyl)-1H-pyrrolo[2,3-b]pyridin-4-yl]oxy}phenyl)-3-[2-(morpholin-4-yl)ethyl]urea] |  | 48.1 | 25.3 |

Source: US20200246347A1, “Substituted Pyrrolopyridine-Derivatives” (BAYER PHARMA AKTIENGESELLSCHAFT, priority 2017, published 2020)
